This note sets out measurements from PubChem BioAssay AID1845228.

Molecules are shown by their SMILES. Where “and” joins values, the source holds several entries; their conditions need not be identical. Identical values can stand only once. Numbered stars: 1 amine (or outer) side, 2 acyl side, 3 side chain; on linkers, the order of the positions; unused ones are H or OH. Bridge positions count the residues as written; N and C are the ends. Square brackets hold non-standard residues; d marks the D form. Peptide text beside a SMILES is read from it. I, II: the chains in the order shown. Actinocin(9to1) = Cc1c2oc3c(C)ccc(C(=O)[*:1])c3nc-2c(C(=O)[*:2])c(N)c1=O; NMeV = CN[C@H](C(=O)O)C(C)C; Sar = CNCC(=O)O

The conditions of this data set: pampa; 60.0 min; 50.0 µM.
For orientation: Papp means a coefficient for how fast a substance crosses the barrier. A lower Papp goes with slow passage. Consider `CCS(=O)(=O)N1CC(CC#N)(n2cc(-c3ncnc4[nH]ccc34)cn2)C1`, for which the apparent permeability (Papp) is below 1 ×10⁻⁶ cm/s. As for `N=c1c2c(-c3ccccc3)c(-c3ccccc3)n(CCc3ccccc3)c2ncn1C1CCN(Cc2ccccc2)CC1`, the figure is 14 ×10⁻⁶ cm/s; as for `N=c1c2c(-c3ccccc3)cn(Cc3ccc(Br)cc3)c2ncn1CCCN1CCN(c2ccccc2)CC1`, 151 ×10⁻⁶ cm/s; as for `CC(C)N(CCCCOCC(=O)NS(C)(=O)=O)c1cnc(-c2ccccc2)c(-c2ccccc2)n1`, 9 ×10⁻⁶ cm/s.

`CN(C)CCn1nnnc1SCC1=C(C(=O)O)N2C(=O)[C@@H](NC(=O)Cc3csc(N)n3)[C@H]2SC1` had an apparent permeability coefficient (Papp) of 6 ×10⁻⁶ cm/s. The figure for `COCCn1cnc2c(c(-c3ccccc3)c(-c3ccccc3)n2Cc2ccc(OC)cc2)c1=N` is 231 ×10⁻⁶ cm/s; for `COc1cc(Cc2cnc(N)nc2N)c(C(C)C)cc1OC` it is 48 ×10⁻⁶ cm/s. The figure for `CCN1CCN(C(=O)N[C@@H](C(=O)N[C@]2(OC)C(=O)N3C(C(=O)O)=C(CSc4nnnn4C)CS[C@@H]32)[C@H](C)O)C(=O)C1=O` is below 1 ×10⁻⁶ cm/s. As for `CC1NC(C(=O)O)Cc2c1[nH]c1ccccc21` (centres undefined), the figure is below 1 ×10⁻⁶ cm/s. In turn, `CN1CCN(CCCN2c3ccccc3Sc3ccc(C(F)(F)F)cc32)CC1` gave an apparent permeability (Papp) of 53 ×10⁻⁶ cm/s. As for `CCC(=O)O[C@@H](OP(=O)(CCCCc1ccccc1)CC(=O)N1C[C@H](C2CCCCC2)C[C@H]1C(=O)O)C(C)C` (some centres undefined), the figure is 118 ×10⁻⁶ cm/s; as for `NC(=O)[C@@H]1C[C@]2(NC(=O)NC2=O)c2cc(F)ccc2O1`, below 1 ×10⁻⁶ cm/s.

For `Nc1nc2c(c(N3CCNCC3)n1)CCC1=C2[C@@H]2CCCC[C@@H]2O1`, the apparent permeability (Papp) turned out to be 30 ×10⁻⁶ cm/s. As for `C=CCN1CC[C@]23c4c5ccc(O)c4O[C@H]2[C@@H](OCCOCCOCCOCCOCCOCCOCCOC)CC[C@@]3(O)[C@H]1C5`, the figure is below 1 ×10⁻⁶ cm/s; as for `NC(=O)NCC(=O)N[C@H]1CC[C@H](Nc2nccc(-c3ccncc3)n2)C1`, below 1 ×10⁻⁶ cm/s. The figure for `CCOC(CCCn1cnc2c(c(-c3ccccc3)c(-c3ccccc3)n2Cc2ccccc2)c1=N)OCC` is 228 ×10⁻⁶ cm/s; for `Cn1nnnc1Sc1ncnc2scc(-c3cccc(F)c3)c12` it is above 300 ×10⁻⁶ cm/s. As for `CNCCCOc1cc(F)c(-c2c(Cl)nc3ncnn3c2N[C@@H](C)C(F)(F)F)c(F)c1`, the figure is 26 ×10⁻⁶ cm/s. The compound `CCNC1(C(N)=O)CN(c2nc(C)nc3c(-c4ccc(Cl)cc4)c(-c4ccccc4Cl)nn23)C1` registered a Papp of 8.69 ×10⁻⁶ cm/s. For `C[C@@H](O)[C@H]1C(=O)N2C(C(=O)O)=C([C@H]3CCCO3)S[C@H]12`, the Papp was below 1 ×10⁻⁶ cm/s. As for `Cc1c2oc3c(C)ccc(C(=O)N[C@@H]4C(=O)N[C@H](C(C)C)C(=O)N5CCC[C@H]5C(=O)N(C)CC(=O)N(C)[C@@H](C(C)C)C(=O)O[C@@H]4C)c3nc-2c(C(=O)N[C@@H]2C(=O)N[C@H](C(C)C)C(=O)N3CCC[C@H]3C(=O)N(C)CC(=O)N(C)[C@@H](C(C)C)C(=O)O[C@@H]2C)c(N)c1=O` (I: T[dV]P[Sar][NMeV] / II: T[dV]P[Sar][NMeV]; ester I:1-I:C, II:1-II:C; linker I:N-II:N via Actinocin(9to1)), the figure is 6 ×10⁻⁶ cm/s and 13 ×10⁻⁶ cm/s. As for `CC[C@@]1(O)C(=O)OCc2c1cc1n(c2=O)Cc2cc3c(CN(C)C)c(O)ccc3nc2-1`, the figure is 1.37 ×10⁻⁶ cm/s; as for `CCOC(CCCn1cnc2c(c(-c3ccccc3)c(-c3ccccc3)n2CCc2ccccc2)c1=N)OCC`, below 1 ×10⁻⁶ cm/s; as for `C[C@@H]1C[C@@H](O)[C@]2(O)O[C@@H]3C[C@@]4(C=O)C(CC[C@@H]5C4CC[C@]4(C)[C@@H](C6=CC(=O)OC6)CC[C@]54O)C[C@H]3O[C@@H]2O1` (some centres undefined), below 1 ×10⁻⁶ cm/s. The figure for `C1=C(c2cnc[nH]2)c2ccsc2CC1` is 5 ×10⁻⁶ cm/s. `Cc1nn(C)c(C)c1-c1cccc2c1CCC(N(C)C)C2` (centres undefined) displayed an apparent permeability (Papp) of 13.4 ×10⁻⁶ cm/s. The compound `CN(C)c1cc2c(cc1Sc1nc3c(N)nccc3n1CCNCC(C)(C)C)OCO2` had a Papp of 20 ×10⁻⁶ cm/s. The figure for `COc1ccc(CCn2cnc3c(c(-c4ccccc4)cn3Cc3ccccc3)c2=N)cc1OC` is 284 ×10⁻⁶ cm/s; for `O=C1c2c(O)ccc(O)c2C(=O)c2c(NCCNCCO)ccc(NCCNCCO)c21` it is 19 ×10⁻⁶ cm/s; for `CC(=O)NC[C@H]1CN(c2ccc(N3CCOCC3)c(F)c2)C(=O)O1` it is 5 ×10⁻⁶ cm/s. As for `C1CCC(COCCc2noc(C3CNC3)n2)C1`, the figure is below 1 ×10⁻⁶ cm/s. The figure for `CCCCOC(=O)NS(=O)(=O)c1sc(CC(C)C)cc1-c1ccc(Cn2ccnc2)cc1` is 180 ×10⁻⁶ cm/s; for `CCNC(=O)c1cc2c(-c3cc(OCCN4CCCC4)c(Cl)cc3Cl)nc(N)nc2s1` it is 123 ×10⁻⁶ cm/s. Consider `Cc1ccnc2c1NC(=O)c1cccnc1N2C1CC1`, for which the apparent permeability (Papp) was 26 ×10⁻⁶ cm/s. The figure for `CC(=O)Nc1c2sscc-2n(C)c1=O` is 16 ×10⁻⁶ cm/s; for `CCCCN(CCCC)C(=O)CN1C[C@H](c2ccc3c(c2)OCO3)[C@@H](C(=O)O)[C@@H]1c1ccc(OC)cc1` it is 9 ×10⁻⁶ cm/s. `CCOC(=O)c1ccc(NC(=O)c2sc3nc4c(cc3c2N)N2CCC4CC2)cc1` yielded an apparent permeability (Papp) of 255 ×10⁻⁶ cm/s. As for `CC[C@@H]1CN(C(=O)NCC(F)(F)F)C[C@@H]1c1cnc2cnc3[nH]ccc3n12`, the figure is 2 ×10⁻⁶ cm/s; as for `O=C(N[C@@H](CO)[C@H](O)c1ccc([N+](=O)[O-])cc1)C(Cl)Cl`, 3 ×10⁻⁶ cm/s.

In the case of `C[C@]12CCCN1CC1=NNC(=O)c3cc(F)cc4[nH]c2c1c34`, the apparent permeability coefficient (Papp) was found to be 22 ×10⁻⁶ cm/s. As for `COc1cc(C(C)C)c(Oc2cnc(NC(CO)CO)nc2N)cc1I`, the figure is 103 ×10⁻⁶ cm/s; as for `NCc1ccccc1CC(=O)N[C@@H]1C(=O)N2C(C(=O)O)=C(CSc3nnnn3CC(=O)O)CS[C@H]12`, below 1 ×10⁻⁶ cm/s. The figure for `Cn1nnnc1Sc1ncnc2scc(-c3ccc([N+](=O)[O-])cc3)c12` is 93 ×10⁻⁶ cm/s; for `Cc1cccc(NC(=O)c2ccc(C(F)(F)F)cc2C(=O)O)n1` it is below 1 ×10⁻⁶ cm/s.
